Marks after values point to notes of the source that are not given here.
Experiments:
menschlichen Sebocyten = experiment: Inhibition of sebocyte proliferation in vitro (sebocytes cultured on 3T3 fibroblast layer, cell count by haemocytometer); assay type: cell-based; details: amount inhibiting sebocyte proliferation by 50% versus solvent-treated control culture, read-out: ED₅₀
Method: 22a, Abstract 46 beschriebenen Methode isoliert und auf einer Schicht von Mäusen-Fibroblasten 3T3 kultiviert. Durch enzymatische und mechanische Methoden wurde aus Hautgewebe eine Suspension von Sebocyten hergestellt. Dazu wurden die Zellen entweder in 2% Humanserum, 8% fetales Kälberserum und 4 µg/ml Dexamethason oder in 10% fetales Kälberserum und 4 µg/ml Dexamethason enthaltendem Iscove-Medium kultiviert
Den Kulturen wurden die Testverbindungen im Medium alle 48 Stunden zugegeben. Nach der letzten Zugabe wurden die Fibroblasten 3T3 mit 0,03% EDTA in PBS abgespült. Die zurückbleibenden Sebocyten-Kolonien wurden in 0,05% Trypsin/0,03% EDTA unter Bildung einer einheitlichen Zellensuspension von Sebocyten inkubiert. Die Zellen wurden dann verdünnt und mittels eines Hämocytometers gezählt.
Es wurden 10⁻² M äthanolische Lösungen der Testverbindungen vorbereitet und dann auf 10⁻⁶, 10⁻⁷, 10⁻⁸ und 10⁻⁹ M verdünnt.
Die Resultate sind in der nachstehenden Tabelle 1 als Menge der Verbindung, die die Proliferation der Sebocyten um 50% gegenüber einem Kontrollwert hemmen, angegeben. Der Kontrollwert wurde aus einer lediglich mit Lösungsmittel behandelten Zellenkultur erhalten. Tabelle 1

[1] = Soft tissue calcification in rats (45Ca radioactivity in heart and kidneys); assay type: in vivo, Ratten; details: ratio relative to compound X (=1); for Verkalkungsverhältnis Subkutan: subcutaneous administration for 4 days; for Verkalkungsverhältnis Topisch: topical administration for 4 days
Method: Zum Nachweis der Verkalkung von weichem Gewebe durch die Verbindungen der Formel I erhielten Ratten subkutane Injektionen von 40 µCi ⁴⁵Ca. Die Verbindungen wurden dann subkutan oder topisch während 4 Tagen den Tieren verabreicht. Die Ratten wurden 1 Tag nach der letzten Injektion getötet. Herz und Nieren wurden entfernt und mit Salpetersäure behandelt. Es wurde die Radioaktivität einer Menge von 0,2 ml dieser Präparation gemessen.

[2] = tested on: Talgdrüsen des Hamsterohrs; experiment: Topical activity on sebaceous glands of the hamster ear (daily application for 4 weeks); assay type: in vivo; details: change of sebaceous gland cross-section versus acetone controls
Method: Die topische Wirksamkeit von Verbindungen der Formel I gegen Akne wurde an Talgdrüsen des Hamsterohrs gemessen. Versuchstieren wurden 50 µl einer Lösung der Testverbindung und Kontrolltieren 50 µl Aceton täglich auf das Ohr appliziert. Nach 4 Wochen wurden die Tiere getötet. Die Fläche der Talgdrüsen auf den Ohren wurde ermittelt. In der Tabelle 2 sind die Resultate als %-Aenderung gegenüber Kontrolltieren der Veränderung des Querschnitts der Talgdrüsen auf dem Hamsterohr angegeben: Tabelle 2

[3] = tested on: Talgdrüsen des Hamsterohrs; experiment: Effect on sebaceous glands of the hamster ear after oral administration (daily for 4 weeks); assay type: in vivo, syrischen Goldhamstern; details: change of sebaceous gland cross-section
Method: Der Effekt von Verbindungen der Formel I auf die Talgdrüsen des Hamsterohrs nach oraler Verabreichung wurde ermittelt. Männlichen syrischen Goldhamstern wurden täglich 200 µl einer Lösung der Testverbindungen in Propylenglykol oral verabreicht. Nach 4 Wochen wurden die Tiere getötet. Die Fläche der Talgdrüsen auf den Ohren wurde ermittelt. Die Resultate sind in Tabelle 4 als Veränderung im Querschnitt der Talgdrüsen des Hamsterohrs angegeben: Tabelle 4

[4] = topical, 10,00 µg/Hamster daily
[5] = oral, 5,00 µg/kg daily in propylene glycol

| SMILES | EC50 (menschlichen Sebocyten) [nM] | Verkalkungsverhältnis Subkutan [1] | Verkalkungsverhältnis Topisch [1] | % Aenderung ([2]; topical, 0,10 µg/Hamster daily) [%] | % Aenderung ([2]; topical, 1,00 µg/Hamster daily) [%] | % Aenderung [2, 4] [%] | % Veränderung ([3]; oral, 2,50 µg/kg daily in propylene glycol) | % Veränderung [3, 5] | % Veränderung ([3]; oral, 10,00 µg/kg daily in propylene glycol) | % Veränderung ([3]; oral, 20,00 µg/kg daily in propylene glycol) | % Veränderung ([3]; oral, 0,05 µg/kg daily in propylene glycol) | % Veränderung ([3]; oral, 0,50 µg/kg daily in propylene glycol) | % Veränderung ([3]; oral, 50,00 µg/kg daily in propylene glycol) |
| --- | --- | --- | --- | --- | --- | --- | --- | --- | --- | --- | --- | --- | --- |
| C=C1/C(=C\C=C2/CCC[C@]3(C)C([C@H](C)CCCC(C)(C)O)=CC[C@@H]23)C[C@@H](O)C[C@@H]1O [A, 1α,25-Dihydroxy-16-dehydrocholecalciferol] | 1 |  |  |  |  |  |  |  |  |  |  |  |  |
| C=C1/C(=C\C=C2/CCC[C@]3(C)[C@@H]([C@H](C)CCCC(C)(C)O)CC[C@@H]23)C[C@@H](O)C[C@@H]1O [Verbindung X, 1α,25-Dihydroxycholecalciferol, reference compound] | 5 | 1 | 1 |  |  |  |  |  |  |  |  |  |  |
| C=C1CC[C@H](O)C/C1=C/C=C1\CCC[C@]2(C)C([C@H](C)C/C=C/C(C)(C)O)=CC[C@@H]12 [Verbindung D, 25-Hydroxy-16,23E-bisdehydrocholecalciferol] | > 1000 | >1400 | >34 | -16 | -16 | -43 | -15* % | -22** % | -27*** % | -36*** % |  |  |  |
| C=C1/C(=C\C=C2/CCC[C@]3(C)C([C@H](C)CC#CC(C)(C)O)=CC[C@@H]23)C[C@@H](O)C[C@@H]1O [Verbindung E, 1α,25-Dihydroxy-16-dehydro-23-didehydrocholecalciferol] | 1 | 47 | > 1 |  |  |  |  |  |  |  |  |  |  |
| C=C1CC[C@H](O)C/C1=C/C=C1\CCC[C@]2(C)C([C@H](C)CC#CC(C)(C)O)=CC[C@@H]12 [F, 25-Hydroxy-16-dehydro-23-didehydrocholecalciferol] | 100 | >1400 | >34 | -23 | -40 | -64 |  | -42*** % |  |  | -16* % | -23** % | -55*** % |

From patent publication EP0398217B1, “Dehydrocholecalciferol derivatives” (F. HOFFMANN-LA ROCHE AG, priority 1989, dated 1990)
